Results on 35 molecules are retold here after patent US9914711B2 (priority 2013, dated 2018).

The test system of one data set is C. violaceum CV026. Description: Preliminary screening of bacterial quorum sensing agonistic / inhibitory activity on LB plate (purple stain / white circle). Type of data set: cell-based. The settings on record: for Regulatory activity (bacterial quorum sensing regulatory activity): 1 μl of 0.065M compound spotted on plate, inhibitory screen with inducer C6-HSL, 30° C., 16-18 h; for Effect on bacterial quorum sensing (summary in words): summary of the activity evaluation experiments. On the procedure:
1.1 Preparation work: different compounds to be tested (Compounds 1-40 prepared in Example 1-40) were weighted and then were dissolved in 200 μl DMSO (dimethyl sulfoxide) to prepare a solution at a concentration of 0.065M. 5.0 mg inducer, N-hexanoyl homoserine lactone (C6-HSL, purchased from Sigma Company), was weighted and was dissolved in 200 μl DMSO (at a concentration of 0.125M), and the compounds and the inducer were stored at 4 for further use. C. violaceum CV026 (donated by Professor McLean J C from Texas State University) in LB culture medium (LB culture medium consisting of 1% (percentage by mass) tryptone, 0.5% (percentage by mass) yeast extract, 1% (percentage by mass) NaCl and water) was cultured under shaking in a shaker at 30, 200 rpm to get the culture medium for further use.
1.2 Method for preliminary screening of compounds having agonistic activity: 400 μl C. violaceum CV026 (at a bacterial concentration of 1×10^8/ml) was added to 5 ml melted semi-solid LB culture medium, and was mixed well; the mixed culture medium was poured into a solid LB plate; when the mixed culture medium was solidified on the plate, lattice was made thereon; 1 μl of the dissolved compounds to be tested (Compounds 1-40 in Examples 1-40, at a concentration of 0.065M) was spotted on the plate; when the compounds on the plate was dried in air, the plate was put in a 30° C. oven upside down and was cultured for a period of 16-18 h. If the compound to be tested has an agonistic effect on C. violaceum CV026 on the LB plate, purple stain will be induced on the LB plate. The agonistic activity of a compound is determined depending on whether purple stain is induced for C. violaceum CV026 on LB plate as well as the purple depth.
1.3 Method for preliminary screening of compounds having inhibitory activity: the inducer C6-HSL was diluted gradiently to 1000 times by means of 2-fold dilution; 15 μl diluted inducer and 400 μl C. violaceum CV026 in exponential phase (at a bacterial concentration of 1×10^8/ml) were mixed well and then were added to a 5 ml melted semi-solid LB culture medium; the mixture of inducer, C. violaceum, and semi-solid LB was poured onto a solid LB plate; when the mixture was solidified on the plate, lattice was made thereon: 1 μl of the dissolved compounds to be tested (Compounds 1-40 in Examples 1-40, at a concentration of 0.065M) was spotted on the plate; when the compounds on the plate were dried in air, the plate was put in a 30° C. oven upside down and was cultured for a period of 16-18 h. If the compound to be tested has an inhibitory effect on C. violaceum CV026 on the LB plate, white circle will appear on the LB plate. The inhibitory activity of a compound is preliminary determined depending on the size of the white circle appeared after C. violaceum CV026 was inhibited on LB plate.
It is found after preliminary screening that 22 compounds according to the invention have bacterial quorum sensing regulatory activity, and the screening result was shown in Table 1.

SMILES strings stand for the structures.

In turn, `O=C(CCCc1ccccc1)NN1CCOC1=O` [Compound 40, N-(2-oxo-oxazolidin-3-yl)-4-phenyl butanamide] registered a melting point of 104 to 107 °C. For the same molecule, the “Regulatory activity (bacterial quorum sensing regulatory activity)” value (shortened to “Regulatory activity”) with C. violaceum CV026 is given as “+”.

On to `O=C(NN1CCOC1=O)c1ccccc1Cl` [Compound 4, 2-chloro-N-(2-oxo-oxazolidin-3-yl)benzamide], for which the melting point lay within 166 to 168 °C. Besides, in the data set with C. violaceum CV026, the “Regulatory activity” value is on record as “±”; the “Effect on bacterial quorum sensing (summary in words)” value (shortened to “Effect on bacterial quorum sensing”) was “both an agonizing effect and an inhibitory effect”.

As to `CCCCCCNC(=O)NN1CCOC1=O` [Compound 17, 1-(2-oxo-oxazolidin-3-yl)-3-hexyl urea], the melting point was in the range of 74 to 75 °C. On the same count and under the same terms, for `Cc1cccc(NC(=O)NN2CCOC2=O)c1` the value was 191 to 192 °C. For the molecule `O=C(NN1CCOC1=O)c1cccc(Cl)c1` [Compound 5, 3-chloro-N-(2-oxo-oxazolidin-3-yl)benzamide], the melting point fell in the range of 151 to 152 °C. The “Regulatory activity” value with C. violaceum CV026 is given as “+”. For the molecule `CCCCCCCNC(=O)NN1CCOC1=O` [Compound 18, 1-(2-oxo-oxazolidin-3-yl)-3-heptyl urea], the melting point was in the range of 68 to 69 °C. For the same molecule, in the data set on C. violaceum CV026, the “Regulatory activity” value is reported as “−” and the “Effect on bacterial quorum sensing” value is “inhibitory effect on bacterial quorum sensing”. For the molecule `O=C(CCc1ccc(Cl)cc1)NN1CCOC1=O` [Compound 39], the melting point lay in the range of 134 to 136 °C. In addition, the “Regulatory activity” value in the data set on C. violaceum CV026 was “+”. For `O=C(NN1CCOC1=O)c1ccc(F)cc1` [Compound 1, 4-fluoro-N-(2-oxo-oxazolidin-3-yl)benzamide], the melting point lay within 189 to 192 °C.

As to `O=C(NCc1ccccc1)NN1CCOC1=O` [Compound 23, 1-benzyl-3-(2-oxo-oxazolidin-3-yl)urea], the melting point was 160 to 161 °C. In the case of `O=C(NC1CCCCC1)NN1CCOC1=O` [Compound 22, 1-cyclohexyl-3-(2-oxo-oxazolidin-3-yl)urea], the melting point lay in the range of 203 to 205 °C. `O=C(NN1CCOC1=O)c1ccccc1C(F)(F)F` [Compound 10, 2-trifluoromethyl-N-(2-oxo-oxazolidin-3-yl)benzamide]: the melting point lay in the range of 139 to 141 °C. In addition, the “Regulatory activity” value in the data set on C. violaceum CV026 was “+”. As to `O=C(Nc1ccc(Br)cc1)NN1CCOC1=O` [Compound 20, 1-(4-bromophenyl)-3-(2-oxo-oxazolidin-3-yl)urea], the melting point lay in the range of 212 to 215 °C. With `COc1ccc(CC(=O)NN2CCOC2=O)cc1` [Compound 32, 2-(4-methoxyphenyl)-N-(2-oxo-oxazolidin-3-yl)acetamide], the melting point fell in the range of 90 to 92 °C. The “Regulatory activity” value in the data set on C. violaceum CV026 is recorded as “+”. Turning to `O=C(NN1CCOC1=O)c1ccc(F)cc1` [Compound 9, 4-fluoro-N-(2-oxo-oxazolidin-3-yl)benzamide], in the data set with C. violaceum CV026, the “Regulatory activity” value is “+”. Molecule `Cc1ccc(CCC(=O)NN2CCOC2=O)cc1` [Compound 38] yielded a melting point of 146 to 148 °C. For the same molecule, the “Regulatory activity” value in the data set with C. violaceum CV026 is given as “+”. In turn, `CCCCCCCCNC(=O)NN1CCOC1=O` [Compound 19, 1-(2-oxo-oxazolidin-3-yl)-3-octyl urea] yielded a melting point of 64 to 65 °C. For the same molecule, in the data set with C. violaceum CV026, the “Regulatory activity” value was “−” and the “Effect on bacterial quorum sensing” value is “inhibitory effect on bacterial quorum sensing”. The molecule `O=C(Cc1ccc([N+](=O)[O-])cc1)NN1CCOC1=O` [Compound 33, 2-(4-nitrophenyl)-N-(2-oxo-oxazolidin-3-yl)acetamide] displayed a melting point of 180 to 183 °C. The “Regulatory activity” value with C. violaceum CV026 is given as “+”. For the molecule `O=C(Nc1cccc(Br)c1)NN1CCOC1=O`, the melting point fell in the range of 197 to 199 °C. Still for that read-out and setting: for `O=C1OCCN1NC(=S)Nc1ccc(F)cc1` [Compound 28, 1-(4-fluorophenyl)-3-(2-oxo-oxazolidin-3-yl)sulfourea] the value was 190 to 191 °C.

For the molecule `O=C(CCc1ccccc1)NN1CCOC1=O` [Compound 37], in the data set with C. violaceum CV026, the “Regulatory activity” value was “+”. With `O=C(NN1CCOC1=O)c1ccc(CCl)cc1` [Compound 3, 4-chloromethyl-N-(2-oxo-oxazolidin-3-yl)benzamide], the melting point is 206 to 208 °C. Besides, in the data set with C. violaceum CV026, the “Regulatory activity” value is “−” and the “Effect on bacterial quorum sensing” value is “inhibitory effect on bacterial quorum sensing”. In the same order, the values of `CC(C)(C)c1ccc(C(=O)NN2CCOC2=O)cc1` [Compound 2, 4-tert-butyl-N-(2-oxo-oxazolidin-3-yl)benzamide] are 187 to 189 °C, “−” and “inhibitory effect on bacterial quorum sensing”. As to `Cc1ccc(NC(=O)NN2CCOC2=O)cc1`, the melting point lay in the range of 205 to 207 °C. In turn, `Cc1ccc(CC(=O)NN2CCOC2=O)cc1` [Compound 35, 2-(4-tolyl)-N-(2-oxo-oxazolidin-3-yl)acetamide] came in with a melting point of 108 to 111 °C. The “Regulatory activity” value in the data set with C. violaceum CV026 is reported as “+”. With `CCCCNC(=O)NN1CCOC1=O` [Compound 15, 1-(2-oxo-oxazolidin-3-yl)-3-butyl urea], the melting point lay within 98 to 100 °C. The molecule `O=C(CCc1ccc([N+](=O)[O-])cc1)NN1CCOC1=O` [Compound 36] displayed a melting point of 143 to 145 °C. Also, the “Regulatory activity” value in the data set on C. violaceum CV026 is reported as “+”.

`O=C(Cc1ccc(Cl)cc1)NN1CCOC1=O` [Compound 34, 2-(4-chlorophenyl)-N-(2-oxo-oxazolidin-3-yl)acetamide] had a melting point of 124 to 127 °C. For the same molecule, the “Regulatory activity” value in the data set on C. violaceum CV026 was “+”.

On to `O=C(Cc1ccc(F)cc1)NN1CCOC1=O` [Compound 31, 2-(4-fluorophenyl)-N-(2-oxo-oxazolidin-3-yl)acetamide], for which the melting point was 131 to 134 °C. Further, in the data set on C. violaceum CV026, the “Regulatory activity” value is recorded as “+”. In turn, `Cc1cccc(C(=O)NN2CCOC2=O)c1` [Compound 8, 3-methyl-N-(2-oxo-oxazolidin-3-yl)benzamide] came in with a melting point of 148 to 150 °C. Also, the “Regulatory activity” value with C. violaceum CV026 is “+”. In turn, `CCCCCNC(=O)NN1CCOC1=O` [Compound 16, 1-(2-oxo-oxazolidin-3-yl)-3-pentyl urea] yielded a melting point of 83 to 86 °C. As for `O=C(NN1CCOC1=O)c1cccc(F)c1`, the melting point is 166 to 169 °C.

`O=C(NCCc1ccccc1)NN1CCOC1=O` [Compound 24, 1-(2-oxo-oxazolidin-3-yl)phenyl ethyl urea]: the melting point lay in the range of 123 to 125 °C. Same read-out and setting: for `O=C1OCCN1NC(=S)Nc1ccccc1` [Compound 27, 1-(2-oxo-oxazolidin-3-yl)phenylthiourea] the value was 191 to 193 °C; for `O=C(NN1CCOC1=O)c1ccccc1F` [Compound 6, 2-fluoro-N-(2-oxo-oxazolidin-3-yl)benzamide], 124 to 127 °C; for `O=C(Nc1ccc(OC(F)(F)F)cc1)NN1CCOC1=O`, 205 to 206 °C.
